According to US20080182874A1, “Novel Compounds” (priority 2004, published 2008):

biological target: T1, P2X7 receptor (Homo sapiens, UniProt Q99572); assay: bbATP-induced ethidium bromide uptake in THP-1 cells (P2X7 antagonist activity); assay type: cell-based; conditions: not given
T1 construct: 200 μl of a suspension of THP-1 cells (2.5×10^6 cells/ml) containing 10^−4M ethidium bromide; endogenous in cells; host or cells: THP-1 cells
T1 sequence (Q99572 1-595): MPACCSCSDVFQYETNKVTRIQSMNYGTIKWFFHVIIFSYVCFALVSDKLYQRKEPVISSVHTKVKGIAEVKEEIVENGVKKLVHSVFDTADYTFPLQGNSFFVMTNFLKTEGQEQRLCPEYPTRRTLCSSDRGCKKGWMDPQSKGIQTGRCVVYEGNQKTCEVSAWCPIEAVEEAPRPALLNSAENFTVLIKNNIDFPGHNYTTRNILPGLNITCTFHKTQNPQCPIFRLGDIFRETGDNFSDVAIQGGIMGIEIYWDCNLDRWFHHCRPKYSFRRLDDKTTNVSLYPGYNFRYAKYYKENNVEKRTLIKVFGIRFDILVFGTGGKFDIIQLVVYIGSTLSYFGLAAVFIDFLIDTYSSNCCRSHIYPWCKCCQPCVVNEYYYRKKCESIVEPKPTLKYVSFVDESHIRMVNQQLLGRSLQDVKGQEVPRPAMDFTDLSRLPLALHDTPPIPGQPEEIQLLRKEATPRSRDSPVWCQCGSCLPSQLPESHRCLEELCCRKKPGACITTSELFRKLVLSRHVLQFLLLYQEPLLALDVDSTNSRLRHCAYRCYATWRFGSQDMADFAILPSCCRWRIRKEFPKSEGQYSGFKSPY
Text: Certain compounds such as benzoylbenzoyl adenosine triphosphate (bbATP) are known to be agonists of the P2X7 receptor, effecting the formation of pores in the plasma membrane (Drug Development Research (1996), 37(3), p. 126). Consequently, when the receptor is activated using bbATP in the presence of ethidium bromide (a fluorescent DNA probe), an increase in the fluorescence of intracellular DNA-bound ethidium bromide is observed. The increase in fluorescence can be used as a measure of P2X7 receptor activation and therefore to quantify the effect of a compound on the P2X7 receptor.
In this manner, each of the title compounds of the Examples was tested for antagonist activity at the P2X7 receptor. […] The plate was covered with a plastics sheet and incubated at 37° C. for one hour. The plate was then read in a Perkin-Elmer fluorescent plate reader, excitation 520 nm, emission 595 nm, slit widths: Ex 15 nm, Em 20 nm. For the purposes of comparison, bbATP (a P2X7 receptor agonist) and pyridoxal 5-phosphate (a P2X7 receptor antagonist) were used separately in the test as controls.

Row | SMILES | IC50
1 | O=C(NCC12CC3CC(CC(C3)C1)C2)c1c(Cl)ccc2nc(N3CCC[C@@H](C(=O)O)C3)ccc12 [Example 3, 1-[6-Chloro-5-[[(tricyclo[3.3.1.1^3,7]dec-1-ylmethyl)amino]carbonyl]-2-quinolinyl]-(3R)-3-piperidinecarboxylic acid] | 79.4 nM
2 | O=C(O)CCN[C@H]1CCCN(c2ccc3c(C(=O)NCC45CC6CC(CC(C6)C4)C5)c(Cl)ccc3n2)C1 [Example 12, N-[(3S)-1-[6-Chloro-5-[[(tricyclo[3.3.1.1^3,7]dec-1-ylmethyl)amino]carbonyl]-2-quinolinyl]-3-piperidinyl]-β-alanine] | 15.8 nM

same assay, conditions: THP-1 cells, 10^-5M bbATP agonist, ethidium bromide fluorescence, 37° C. for one hour; negative logarithm of concentration reducing bbATP agonist activity by 50%; read-out: pIC50 (converted)

Row | IC50 | SMILES
3 | 63.1 nM | O=C(O)c1cccc(-c2ccc3c(C(=O)NCC45CC6CC(CC(C6)C4)C5)c(Cl)ccc3n2)c1 [Example 24, 3-[6-Chloro-5-[[(tricyclo[3.3.1.1^3,7]dec-1-ylmethyl)amino]carbonyl]-2-quinolinyl]-benzoic acid]

system: not given; assay: not given; conditions: not given

Row | SMILES | melting point
4 | O=C(NCC12CC3CC(CC(C3)C1)C2)c1c(Cl)ccc2nc(N3CCC[C@@H](C(=O)O)C3)ccc12 [Example 3, 1-[6-Chloro-5-[[(tricyclo[3.3.1.1^3,7]dec-1-ylmethyl)amino]carbonyl]-2-quinolinyl]-(3R)-3-piperidinecarboxylic acid] | 257 to 262 °C
5 | O=C(CC12CC3CC(CC(C3)C1)C2)Nc1c(Cl)ccc2nc(N3CCC(C(=O)O)CC3)ccc12 [Example 1, 1-[6-Chloro-5-[(tricyclo[3.3.1.1^3,7]dec-1-ylacetyl)amino]-2-quinolinyl]-4-piperidinecarboxylic acid] | 240 to 241 °C
6 | O=C(O)CCN[C@H]1CCCN(c2ccc3c(C(=O)NCC45CC6CC(CC(C6)C4)C5)c(Cl)ccc3n2)C1 [Example 12, N-[(3S)-1-[6-Chloro-5-[[(tricyclo[3.3.1.1^3,7]dec-1-ylmethyl)amino]carbonyl]-2-quinolinyl]-3-piperidinyl]-β-alanine] | 176 to 189 °C
7 | O=C(NCC12CC3CC(CC(C3)C1)C2)c1c(Cl)ccc2nc(N3CCC(C(=O)O)(c4ccccc4)CC3)ccc12 [Example 18, 1-[6-Chloro-5-[[(tricyclo[3.3.1.1^3,7]dec-1-ylmethyl)amino]carbonyl]-2-quinolinyl]-4-phenyl-4-piperidinecarboxylic acid] | 235 to 237 °C
8 | O=C(NCC12CC3CC(CC(C3)C1)C2)c1c(Cl)ccc2nc(N3CC[C@H](NCCc4nnn[nH]4)C3)ccc12 [Example 6, 6-Chloro-2-[(3S)-3-[[2-(2H-tetrazol-5-yl)ethyl]amino]-1-pyrrolidinyl]-N-(tricyclo[3.3.1.1^3,7]dec-1-ylmethyl)-5-quinolinecarboxamide] | 174 to 177 °C
9 | O=C(O)c1cncc(-c2ccc3c(C(=O)NCC45CC6CC(CC(C6)C4)C5)c(Cl)ccc3n2)c1 [Example 28, 5-[6-Chloro-5-[[(tricyclo[3.3.1.1^3,7]dec-1-ylmethyl)amino]carbonyl]-2-quinolinyl]-3-pyridinecarboxylic acid] | 247 °C
10 | O=C(NCC12CC3CC(CC(C3)C1)C2)c1c(Cl)ccc2nc(CCCCc3nnn[nH]3)ccc12 [Example 9, 6-Chloro-2-[4-(2H-tetrazol-5-yl)butyl]-N-(tricyclo[3.3.1.1^3,7]dec-1-ylmethyl)-5-quinolinecarboxamide] | 221 °C
11 | O=C(NCC12CC3CC(CC(C3)C1)C2)c1c(Cl)ccc2nc(N3CCC(n4cn[nH]c4=O)CC3)ccc12 [Example 4, 6-Chloro-2-[4-(1,5-dihydro-5-oxo-4H-1,2,4-triazol-4-yl)-1-piperidinyl]-N-(tricyclo[3.3.1.1^3,7]dec-1-ylmethyl)-5-quinolinecarboxamide] | 294 to 295 °C
12 | O=C(O)CCNc1ccc2c(C(=O)NCC34CC5CC(CC(C5)C3)C4)c(Cl)ccc2n1 [Example 27, N-[6-Chloro-5-[[(tricyclo[3.3.1.1^3,7]dec-1-ylmethyl)amino]carbonyl]-2-quinolinyl]-β-alanine] | 251 to 252 °C
13 | O=C(O)c1ccccc1-c1ccc2c(C(=O)NCC34CC5CC(CC(C5)C3)C4)c(Cl)ccc2n1 [Example 23, 2-[6-Chloro-5-[[(tricyclo[3.3.1.1^3,7]dec-1-ylmethyl)amino]carbonyl]-2-quinolinyl]-benzoic acid] | 156 to 158 °C
14 | O=C(O)c1ccc(-c2ccc3c(C(=O)NCC45CC6CC(CC(C6)C4)C5)c(Cl)ccc3n2)cc1 [Example 25, 4-[6-Chloro-5-[[(tricyclo[3.3.1.1^3,7]dec-1-ylmethyl)amino]carbonyl]-2-quinolinyl]-benzoic acid] | 316 to 317 °C

Results, then the molecule that gave them:

Row | melting point | SMILES
15 | 189 to 196 °C | O=C(NCC12CC3CC(CC(C3)C1)C2)c1c(Cl)ccc2nc(N3CCC(C(=O)NO)CC3)ccc12 [Example 21, 6-chloro-2-[4-[(hydroxyamino)carbonyl]-1-piperidinyl]-N-(tricyclo[3.3.1.1^3,7]dec-1-ylmethyl)-5-quinolinecarboxamide]
16 | 170 to 173 °C | CS(=O)(=O)NC(=O)C1CCN(c2ccc3c(C(=O)NCC45CC6CC(CC(C6)C4)C5)c(Cl)ccc3n2)CC1 [Example 20, 6-Chloro-2-[4-[[(methylsulfonyl)amino]carbonyl]-1-piperidinyl]-N-(tricyclo[3.3.1.1^3,7]dec-1-ylmethyl)-5-quinolinecarboxamide]
17 | 231 to 235 °C | O=C(NCC12CC3CC(CC(C3)C1)C2)c1c(Cl)ccc2nc(N3CCC(C(=O)O)CC3)ccc12 [Example 7, 1-[6-Chloro-5-[[(tricyclo[3.3.1.1^3,7]dec-1-ylmethyl)amino]carbonyl]-2-quinolinyl]-4-piperidinecarboxylic acid]
18 | 179 to 183 °C | O=C(O)CN1CCN(c2ccc3c(C(=O)NCC45CC6CC(CC(C6)C4)C5)c(Cl)ccc3n2)CC1 [Example 5, 4-[6-Chloro-5-[[(tricyclo[3.3.1.1^3,7]dec-1-ylmethyl)amino]carbonyl]-2-quinolinyl]-1-piperazineacetic acid]
19 | 157 to 160 °C | O=C(NCC12CC3CC(CC(C3)C1)C2)c1c(Cl)ccc2nc(N3CCC[C@@H]3C(=O)O)ccc12 [Example 2, 1-[6-Chloro-5-[[(tricyclo[3.3.1.1^3,7]dec-1-ylmethyl)amino]carbonyl]-2-quinolinyl]-D-proline]
20 | 212 to 214 °C | O=C(O)CC1CCN(c2ccc3c(C(=O)NCC45CC6CC(CC(C6)C4)C5)c(Cl)ccc3n2)CC1 [Example 8, 1-[6-Chloro-5-[[(tricyclo[3.3.1.1^3,7]dec-1-ylmethyl)amino]carbonyl]-2-quinolinyl]-4-piperidineacetic acid]
21 | 175 to 180 °C | O=C(NCC12CC3CC(CC(C3)C1)C2)c1c(Cl)ccc2nc(N3C[C@@H]4[C@H](C3)[C@H]4C(=O)O)ccc12 [Example 19, (1R,5S)-3-[6-Chloro-5-[[(tricyclo[3.3.1.1^3,7]dec-1-ylmethyl)amino]carbonyl]-2-quinolinyl]-3-azabicyclo[3.1.0]hexane-6-carboxylic acid]
22 | 200 to 204 °C | O=C(NCC12CC3CC(CC(C3)C1)C2)c1c(Cl)ccc2nc(N3CCC(O)(C(=O)O)CC3)ccc12 [Example 17, 1-[6-Chloro-5-[[(tricyclo[3.3.1.1^3,7]dec-1-ylmethyl)amino]carbonyl]-2-quinolinyl]-4-hydroxy-4-piperidinecarboxylic acid]
